Data published in US9878041B2, “Cyanoacrylate tissue adhesives” (Adhezion Biomedical, LLC, priority 2007, dated 2018).

Assays:
[1] = test system: hind limb muscles of adult Sprague-Dawley rats; assay: In vivo biocompatibility and degradation, macroscopic and IHC, incision closure
Description: Small surgical incisions (0.2 cm in depth, 1 cm in length) were made in both hind limb muscles of adult Sprague-Dawley rats (n=4). One incision was closed by 1 drop of various cyanoacrylate formulations dispensed through a surgical syringe needle (25 G) and the other was closed by absorbable suture (VICRYL, Ethicon) with and without injection of equivalent volumes of PEG included in cyanoacrylate formulations as controls. In order to ensure proper identification of the injury sites, a single non-absorb-able suture was placed adjacent to each repaired incision site.
At 7 days, 4 weeks, and 12 weeks post-surgery, tissue explants containing the repaired incision sites and surrounding muscle tissue were retrieved. The explants were photographed to document the macroscopic tissue response to the various cyanoacrylate formulations and suture controls (FIGS. 3A-3H (7 days), 4A-4H (4 weeks), and 5A-5H (12 weeks)). Identification of specific cells types associated with wound healing and inflammation was performed by histological sectioning and immunohistochemical (IHC) staining. Tissue explants were embedded in Optimal cutting temperature (OCT) compound and sectioned perpendicular to the surface of the repaired muscle tissue. Sections ([…] thick) were transferred to glass microscope slides, fixed with methanol, permeabilized with 0.025% Triton in PBS solution, and stained with primary antibodies directed against vimentin (fibroblasts) and rat macrophages, and Alexa-594 conjugated secondary antibodies. DAPI mounting media was used to counterstain all cellular nuclei. Samples were imaged by fluorescence microscopy (FIGS. 6A-6P, 7A-7P, 8A-8P). Specific cell types are identified in red, sutures and various cyanoacrylate adhesives are shown in green, and cellular nuclei are shown in blue. […]

[2] = test system: Human dermal fibroblast (HDF) cells; assay: In vitro cytotoxicity of adhesive-conditioned media (MTT assay); type: cell-based; conditions: ACM collected at 2 days; HDF cultured 2 days; FIG. 9
Description: 2 μl of various CA formulations were applied on thin collagen films in 12 well plates and allowed to polymerize completely overnight at room temperature. One ml of […] (DMEM) including 10% Serum and 1% Penicillin/Streptomycin was added into each well and incubated at 37° C. in a humidified CO2 incubator to simulate adhesive degradation. Media samples were collected at 2, 7, and 14 days and these adhesive-conditioned media (ACM) were stored at −20° C. until use. Human dermal fibroblast (HDF) cells were seeded in new 12-well culture plates at a density of 8×10^4 cells/well and cultured for 24 hours to allow cell attachment. The media was replaced with the stored ACM and cultured for 2 days at 37° C. to evaluate the in vitro cytotoxicity of the various CA derivatives. Cell cytotoxicity by the degraded CA adhesives in ACM was evaluated by MTT assay. The principle of this assay is the addition of a dye which is degraded by enzymes present in living cells, resulting in the formation of a colored product. The product concentration, which is generally directly proportional to the number of viable cells, is assayed by spectrophotometry.

[3] = test system: Escherichia coli; assay: Antibacterial activity by agar diffusion method; type: cell-based; design: key: c: Inhibition of growth not observed; conditions: 10 mg sample
Description: Antibacterial activity of polymyxin B-loaded PBCA nanoparticles was measured indirectly by the agar diffusion method. 30 ml of nutrient agar was added into each of four culture plates (90 mm diameter, 15 mm high). After solidifying, a cylindrical hole (13 mm in diameter) was made in the center of the plate and the contents were removed. 10 mg of polymyxin B, PBCA nanoparticles, and two polymyxin B-loaded PBCA nanoparticles (Poly BIPBCA-1 and 2) were added into a hole of each plate, respectively and a few drops of molten agar were added to fix the samples. The plate were inoculated with Escherichia coli and incubated at 37° C. for 24 hours and the zone of inhibition was determined (FIGS. 13A-13D).
To evaluate the duration of antibacterial activity of each sample, the content of each hole was removed after 24 hours of incubation and transferred to a hole of a freshly prepared plate, incubated again for 24 hours and the zone of inhibition measured. This procedure was continuously repeated until the inhibition of growth was no longer observed.

[4] = test system: Human dermal fibroblasts; assay: Cell adhesion to polymerized cyanoacrylates (live/dead staining); type: cell-based; conditions: 48 hours culture; FIG. 10
Description: 2 μl aliquots of various cyanoacrylate formulations with and without PEG were applied to thin collagen films in 24 well plates and allowed to cure overnight at room temperature. Human dermal fibroblasts were seeded on the collagen film/polymerized adhesive surfaces at 8×10^4 cells/well and cultured for 48 hours. The cells were stained with fluorescein diacetate and propidium iodide to visualize live (green) and dead (red) cells respectively. FIGS. 10A (OCA+MCA), 10B (OCA+MCA/PEG), 10E (MCA), and 10F (MCA/PEG) are phase contrast images (black and white) showing the interface between the cyanoacrylate adhesives and the surrounding collagen films and corresponding fluorescent images FIGS. 10C (OCA+MCA), 10D (OCA+MCA/PEG), 10G (MCA), and 10H (MCA/PEG) showing the location of adherent cells.

[5] = In vitro accelerated degradation study of cured adhesive films; type: physicochemical; conditions: thin films in 0.05N NaOH, 37° C., 3, 7, 14 and 21 days; FIG. 1
Description: In vitro accelerated degradation studies have been performed to evaluate the degradation rate of various cyanoacrylate adhesives formulated with PEG and without PEG. 20 μl of cyanoacrylate (CA) derivatives and CA derivatives/PEG (MW=600) formulations were spread as a thin layer on the glass microscope slides and allowed to cure overnight at room temperature. […] The films were collected at 3, 7, 14, and 21 days and washed with distilled water two times. The washed films were freeze-dried and weighed (W1) (n=3). […] 2. Tissue Bond Strength Study

[6] = 4 weeks post-surgery, one value per rat
[7] = 7 days post-surgery, one value per rat
[8] = 7 days post-surgery, one value per rat (Rat No. 1-4), star grades not defined
[9] = Table IV, 4 weeks post-surgery (12 weeks), one value per rat

Row | Compound | Vessel formation [1, 6] | macroscopic inflammation and swelling of tissue explants ([1]; 7 days post-surgery) | Vessel formation [1, 7] | Degree of inflammation [1, 8] | Degree of inflammation [1, 9] | Vessel formation [1, 9] | cytotoxicity of adhesive-conditioned media (% cell viability) [2] | Inhibition zone: Diameter (mm) ([3]; day 1, includes original 13 mm sample size) | Inhibition zone: Diameter (mm) ([3]; day 2 (sample moved to fresh plate every 24 hours), includes 13 mm sample size) | Inhibition zone: Diameter (mm) ([3]; day 3, includes 13 mm sample size) | Inhibition zone: Diameter (mm) ([3]; day 4, includes 13 mm sample size) | Inhibition zone: Diameter (mm) ([3]; day 5, includes 13 mm sample size) | Inhibition zone: Diameter (mm) ([3]; day 6) | fibroblast adhesion to polymerized adhesive surface [4] | % degradation in vitro [5] | Degree of inflammation [1, 6] | No. of macrophages ([1]; Table IV, 4 weeks post-surgery (12 weeks), one value per rat, IHC)
1 | C=C(C#N)C(=O)OCCCCCCCC [OCA, octylcyanoacrylate] | no | mild inflammation and swelling | no | no | no | no | not cytotoxic except for the ACM from OCA |  |  |  |  |  |  |  |  |  | 
2 | Polymyxin B |  |  |  |  |  |  |  | 36 | 38.3 | 28 | 25.1 | 22 | c |  |  |  | 
3 | methoxyisopropylcyanoacrylate [MCA] | no |  | no | no | no | no |  |  |  |  |  |  |  | readily adhered in large numbers | significantly increased degradation | no | 0
